{
  "source": "ChEMBL document CHEMBL1201862",
  "about": "“PubChem BioAssay data set” (2004)",
  "key": {"[1]": {"test": "Fluorescence-based cell-based high throughput dose response assay for inhibitors of the interaction of nucleotide-binding oligomerization domain containing 2 (NOD2) and the receptor-interacting serine-threonine kinase 2 (RIPK2).", "type": "functional", "conditions": "Homo sapiens"}, "[2]": {"target": "Induced myeloid leukemia cell differentiation protein Mcl-1 (Homo sapiens, UniProt Q07820)", "sequence (Q07820 whole entry)": "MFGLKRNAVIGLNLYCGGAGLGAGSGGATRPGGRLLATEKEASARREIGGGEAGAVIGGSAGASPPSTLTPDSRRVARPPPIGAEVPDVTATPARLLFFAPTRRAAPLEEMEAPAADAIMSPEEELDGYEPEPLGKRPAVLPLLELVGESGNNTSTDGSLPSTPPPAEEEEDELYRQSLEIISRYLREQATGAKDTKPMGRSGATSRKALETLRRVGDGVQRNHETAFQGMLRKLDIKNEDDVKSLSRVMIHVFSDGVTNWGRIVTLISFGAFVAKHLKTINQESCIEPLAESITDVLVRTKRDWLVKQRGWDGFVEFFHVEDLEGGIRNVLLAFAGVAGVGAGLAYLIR", "type": "functional"}, "Beta-galactosidase [3]": {"target": "T1, Beta-galactosidase (Escherichia coli, UniProt Q8VNN2)", "T1 sequence (Q8VNN2 whole entry)": "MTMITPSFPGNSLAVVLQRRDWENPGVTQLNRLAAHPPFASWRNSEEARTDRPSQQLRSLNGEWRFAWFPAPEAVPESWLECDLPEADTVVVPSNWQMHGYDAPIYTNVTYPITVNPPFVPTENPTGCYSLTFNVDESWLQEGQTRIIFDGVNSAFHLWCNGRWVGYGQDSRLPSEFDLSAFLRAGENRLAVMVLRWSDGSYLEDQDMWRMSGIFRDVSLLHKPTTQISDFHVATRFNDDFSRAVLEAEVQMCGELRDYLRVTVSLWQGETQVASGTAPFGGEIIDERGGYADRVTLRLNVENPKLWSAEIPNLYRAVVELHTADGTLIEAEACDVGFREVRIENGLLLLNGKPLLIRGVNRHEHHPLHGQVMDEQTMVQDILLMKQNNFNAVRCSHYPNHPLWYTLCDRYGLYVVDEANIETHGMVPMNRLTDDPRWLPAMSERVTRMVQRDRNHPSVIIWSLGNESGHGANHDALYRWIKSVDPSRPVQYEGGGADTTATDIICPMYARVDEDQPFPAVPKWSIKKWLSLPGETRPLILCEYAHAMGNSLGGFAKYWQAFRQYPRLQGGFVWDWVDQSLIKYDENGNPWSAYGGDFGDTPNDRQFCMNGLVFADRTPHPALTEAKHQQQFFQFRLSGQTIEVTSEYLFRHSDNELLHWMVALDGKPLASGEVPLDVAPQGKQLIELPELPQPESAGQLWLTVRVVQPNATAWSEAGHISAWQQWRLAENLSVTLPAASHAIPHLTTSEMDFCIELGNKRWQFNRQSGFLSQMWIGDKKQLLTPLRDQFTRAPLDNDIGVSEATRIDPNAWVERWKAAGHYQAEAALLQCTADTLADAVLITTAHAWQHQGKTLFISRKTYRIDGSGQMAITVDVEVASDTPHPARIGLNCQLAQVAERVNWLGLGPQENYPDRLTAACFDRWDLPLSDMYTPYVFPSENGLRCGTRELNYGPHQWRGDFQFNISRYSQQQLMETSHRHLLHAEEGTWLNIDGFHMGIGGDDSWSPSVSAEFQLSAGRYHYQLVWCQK", "test": "beta-galactosidase enzyme inhibitors and activators, dose response, artefact control for CCR6 antagonist project, biochemical, E. coli enzyme, set 3 (AID 504712)", "type": "functional"}, "Estrogen receptor beta": {"target": "Estrogen receptor beta (Homo sapiens, UniProt Q92731)", "test": "ERβ–SRC-3 coactivator interaction inhibitors, confirmation, orthogonal assay, biochemical, ELISA, streptavidin-HRP readout (AID 1060)"}, "Hexokinase-1": {"target": "Hexokinase-1 (Homo sapiens, UniProt P19367)", "test": "hexokinase 1 activators, dose response, selectivity assay for HKDC1 activator project, biochemical (AID 504762)", "type": "functional"}, "HEK293": {"test_system": "HEK293", "test": "NOD2 signaling inhibitors in MDP-stimulated cells, cell-based, uHTS, luminescence (AID 2001)", "type": "functional", "conditions": "Homo sapiens"}, "[4]": {"target": "MAP/microtubule affinity-regulating kinase 3 (Homo sapiens, UniProt P27448)", "type": "functional"}, "LIM domain kinase 1": {"target": "LIM domain kinase 1 (Homo sapiens, UniProt P53667)", "test": "Navigating the Kinome. Panel member name: LIMK1", "type": "functional"}, "[5]": {"target": "Phosphorylase b kinase gamma catalytic chain, liver/testis isoform (Homo sapiens, UniProt P15735)", "type": "functional"}, "[6]": {"target": "Mitogen-activated protein kinase 8 (Homo sapiens, UniProt P45983)", "type": "functional"}, "[7]": {"target": "cGMP-dependent protein kinase 1 (Homo sapiens, UniProt Q13976)", "type": "functional"}, "[8]": {"target": "Cyclin-dependent kinase 7 (Homo sapiens, UniProt P50613)", "type": "functional"}, "[9]": {"target": "Non-receptor tyrosine-protein kinase TYK2 (Homo sapiens, UniProt P29597)", "sequence (P29597 whole entry)": "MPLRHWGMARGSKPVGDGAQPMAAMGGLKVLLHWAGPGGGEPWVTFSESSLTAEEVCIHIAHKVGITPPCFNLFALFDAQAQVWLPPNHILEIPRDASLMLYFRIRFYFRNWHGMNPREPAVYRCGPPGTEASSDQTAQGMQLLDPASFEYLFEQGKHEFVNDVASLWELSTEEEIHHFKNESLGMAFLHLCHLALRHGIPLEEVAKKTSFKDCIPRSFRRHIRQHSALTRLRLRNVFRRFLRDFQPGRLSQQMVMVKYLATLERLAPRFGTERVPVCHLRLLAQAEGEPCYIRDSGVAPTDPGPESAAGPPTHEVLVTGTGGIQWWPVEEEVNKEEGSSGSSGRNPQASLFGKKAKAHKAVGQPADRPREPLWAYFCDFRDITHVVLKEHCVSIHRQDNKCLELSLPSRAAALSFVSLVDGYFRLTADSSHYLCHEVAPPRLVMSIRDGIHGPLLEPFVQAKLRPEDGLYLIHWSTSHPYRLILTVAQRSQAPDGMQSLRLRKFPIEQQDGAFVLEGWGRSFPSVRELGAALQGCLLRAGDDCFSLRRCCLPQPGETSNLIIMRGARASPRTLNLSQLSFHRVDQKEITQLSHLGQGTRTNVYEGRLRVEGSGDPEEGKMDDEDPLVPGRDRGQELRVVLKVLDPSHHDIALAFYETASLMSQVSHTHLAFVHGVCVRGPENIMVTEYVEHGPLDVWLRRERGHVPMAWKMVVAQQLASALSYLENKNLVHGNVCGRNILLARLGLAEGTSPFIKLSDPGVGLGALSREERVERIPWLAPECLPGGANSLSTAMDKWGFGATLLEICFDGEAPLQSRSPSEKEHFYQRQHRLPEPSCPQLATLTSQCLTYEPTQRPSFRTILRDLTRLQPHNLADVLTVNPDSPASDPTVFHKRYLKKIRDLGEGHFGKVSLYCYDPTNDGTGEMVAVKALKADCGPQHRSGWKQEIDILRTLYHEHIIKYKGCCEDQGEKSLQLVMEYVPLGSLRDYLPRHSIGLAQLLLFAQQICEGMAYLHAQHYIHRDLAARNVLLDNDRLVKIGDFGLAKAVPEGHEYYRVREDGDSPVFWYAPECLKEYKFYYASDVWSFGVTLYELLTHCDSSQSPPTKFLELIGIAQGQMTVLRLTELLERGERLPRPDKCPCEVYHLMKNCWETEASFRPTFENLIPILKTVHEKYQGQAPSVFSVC", "type": "functional"}, "[10]": {"target": "Tyrosine-protein kinase receptor TYRO3 (Homo sapiens, UniProt Q06418)", "type": "functional"}, "[11]": {"target": "Serine/threonine-protein kinase PAK 4 (Homo sapiens, UniProt O96013)", "type": "functional"}, "[12]": {"target": "Dual specificity protein kinase CLK4 (Homo sapiens, UniProt Q9HAZ1)", "sequence (Q9HAZ1 whole entry)": "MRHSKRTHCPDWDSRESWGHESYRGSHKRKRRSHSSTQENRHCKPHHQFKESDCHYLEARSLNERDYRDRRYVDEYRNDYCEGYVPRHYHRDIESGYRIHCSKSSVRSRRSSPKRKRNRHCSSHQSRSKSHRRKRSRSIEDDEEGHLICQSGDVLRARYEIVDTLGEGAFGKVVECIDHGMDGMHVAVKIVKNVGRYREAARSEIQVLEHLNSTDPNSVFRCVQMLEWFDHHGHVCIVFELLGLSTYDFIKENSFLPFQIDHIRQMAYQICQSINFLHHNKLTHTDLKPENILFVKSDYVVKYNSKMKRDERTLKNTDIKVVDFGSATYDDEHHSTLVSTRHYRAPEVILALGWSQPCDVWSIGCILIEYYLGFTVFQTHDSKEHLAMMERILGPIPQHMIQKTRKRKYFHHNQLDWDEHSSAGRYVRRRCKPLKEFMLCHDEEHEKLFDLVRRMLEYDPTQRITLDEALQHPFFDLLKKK", "type": "functional"}, "[13]": {"target": "MAP kinase-interacting serine/threonine-protein kinase 2 (Homo sapiens, UniProt Q9HBH9)", "type": "functional"}, "[14]": {"target": "Tyrosine-protein kinase SYK (Homo sapiens, UniProt P43405)", "type": "functional"}, "[15]": {"target": "Serine/threonine-protein kinase BRSK1 (Homo sapiens, UniProt Q8TDC3)", "type": "functional"}, "Insulin receptor": {"target": "Insulin receptor (Homo sapiens, UniProt P06213)", "type": "functional"}, "[16]": {"target": "Tyrosine-protein kinase Fer (Homo sapiens, UniProt P16591)", "sequence (P16591 whole entry)": "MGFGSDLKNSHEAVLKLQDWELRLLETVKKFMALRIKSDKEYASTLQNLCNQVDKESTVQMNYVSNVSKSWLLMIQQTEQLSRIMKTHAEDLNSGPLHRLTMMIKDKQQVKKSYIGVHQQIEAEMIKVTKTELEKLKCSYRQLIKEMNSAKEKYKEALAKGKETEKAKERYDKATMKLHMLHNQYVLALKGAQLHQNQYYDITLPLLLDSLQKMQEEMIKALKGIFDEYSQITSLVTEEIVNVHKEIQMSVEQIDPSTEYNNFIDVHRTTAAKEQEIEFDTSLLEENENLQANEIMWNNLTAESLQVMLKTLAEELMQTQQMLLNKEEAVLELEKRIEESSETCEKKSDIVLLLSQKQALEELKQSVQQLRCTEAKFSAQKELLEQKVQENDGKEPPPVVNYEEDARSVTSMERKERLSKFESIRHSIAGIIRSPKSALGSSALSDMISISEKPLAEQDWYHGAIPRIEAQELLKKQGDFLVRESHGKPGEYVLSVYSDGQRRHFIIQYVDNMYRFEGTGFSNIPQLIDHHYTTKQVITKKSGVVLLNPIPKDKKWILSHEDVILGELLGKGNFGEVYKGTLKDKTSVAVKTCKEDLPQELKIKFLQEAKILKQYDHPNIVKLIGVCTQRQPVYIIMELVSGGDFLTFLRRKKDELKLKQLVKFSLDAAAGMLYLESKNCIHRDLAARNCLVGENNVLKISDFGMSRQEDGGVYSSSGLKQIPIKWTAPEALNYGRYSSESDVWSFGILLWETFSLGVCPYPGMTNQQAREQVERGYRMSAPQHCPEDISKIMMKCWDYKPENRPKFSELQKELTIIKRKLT", "type": "functional"}, "[17]": {"target": "Mitogen-activated protein kinase kinase kinase kinase 2 (Homo sapiens, UniProt Q12851)", "sequence (Q12851 whole entry)": "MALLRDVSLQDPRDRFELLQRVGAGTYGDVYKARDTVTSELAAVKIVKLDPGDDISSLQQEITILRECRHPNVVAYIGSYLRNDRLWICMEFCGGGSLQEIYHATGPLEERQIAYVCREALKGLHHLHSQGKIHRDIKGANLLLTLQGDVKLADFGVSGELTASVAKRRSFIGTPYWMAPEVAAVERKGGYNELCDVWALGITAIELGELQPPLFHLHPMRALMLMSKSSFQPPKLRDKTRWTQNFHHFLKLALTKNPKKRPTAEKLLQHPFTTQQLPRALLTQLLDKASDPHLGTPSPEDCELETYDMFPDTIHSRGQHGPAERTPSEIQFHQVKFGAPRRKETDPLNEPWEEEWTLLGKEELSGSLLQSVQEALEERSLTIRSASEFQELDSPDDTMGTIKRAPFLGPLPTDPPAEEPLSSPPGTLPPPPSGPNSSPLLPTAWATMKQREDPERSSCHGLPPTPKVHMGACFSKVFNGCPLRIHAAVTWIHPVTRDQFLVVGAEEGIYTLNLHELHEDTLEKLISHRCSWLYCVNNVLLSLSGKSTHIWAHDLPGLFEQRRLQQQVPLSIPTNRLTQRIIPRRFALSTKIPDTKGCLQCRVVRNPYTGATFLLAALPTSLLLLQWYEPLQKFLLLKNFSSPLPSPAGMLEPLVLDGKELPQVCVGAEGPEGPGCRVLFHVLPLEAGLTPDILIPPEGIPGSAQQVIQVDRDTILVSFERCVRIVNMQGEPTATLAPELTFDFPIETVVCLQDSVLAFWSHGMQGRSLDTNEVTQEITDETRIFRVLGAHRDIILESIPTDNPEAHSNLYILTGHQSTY", "type": "functional"}, "[18]": {"target": "High affinity nerve growth factor receptor (Homo sapiens, UniProt P04629)", "type": "functional"}, "[19]": {"target": "T2, Oxysterols receptor LXR-beta (Homo sapiens, UniProt P55055)", "T2 sequence (P55055 whole entry)": "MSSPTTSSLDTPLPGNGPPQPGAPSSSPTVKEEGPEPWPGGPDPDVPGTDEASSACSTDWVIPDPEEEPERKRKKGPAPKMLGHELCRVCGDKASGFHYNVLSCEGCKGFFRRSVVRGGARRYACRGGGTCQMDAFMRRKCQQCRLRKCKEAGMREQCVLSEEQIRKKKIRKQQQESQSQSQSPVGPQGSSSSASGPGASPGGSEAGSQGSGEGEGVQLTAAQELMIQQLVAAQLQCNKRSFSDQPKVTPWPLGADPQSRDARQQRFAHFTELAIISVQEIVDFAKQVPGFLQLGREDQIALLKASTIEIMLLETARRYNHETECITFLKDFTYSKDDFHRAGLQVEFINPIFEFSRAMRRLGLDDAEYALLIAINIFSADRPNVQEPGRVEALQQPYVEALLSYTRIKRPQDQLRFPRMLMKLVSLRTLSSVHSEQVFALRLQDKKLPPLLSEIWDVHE", "test": "LXR agonists, Gal4 luciferase reporter, dose response, counter-screen for ssDAF-12 agonist project, cell-based, luminescence, HEK293, S. stercoralis campaign (AID 720737)", "type": "functional", "conditions": "read-out: IC50 (the source's name)"}, "[20]": {"target": "Sphingosine 1-phosphate receptor 1 (Homo sapiens, UniProt P21453)", "type": "functional"}, "[21]": {"target": "Delta-type opioid receptor (Homo sapiens, UniProt P41143)", "sequence (P41143 whole entry)": "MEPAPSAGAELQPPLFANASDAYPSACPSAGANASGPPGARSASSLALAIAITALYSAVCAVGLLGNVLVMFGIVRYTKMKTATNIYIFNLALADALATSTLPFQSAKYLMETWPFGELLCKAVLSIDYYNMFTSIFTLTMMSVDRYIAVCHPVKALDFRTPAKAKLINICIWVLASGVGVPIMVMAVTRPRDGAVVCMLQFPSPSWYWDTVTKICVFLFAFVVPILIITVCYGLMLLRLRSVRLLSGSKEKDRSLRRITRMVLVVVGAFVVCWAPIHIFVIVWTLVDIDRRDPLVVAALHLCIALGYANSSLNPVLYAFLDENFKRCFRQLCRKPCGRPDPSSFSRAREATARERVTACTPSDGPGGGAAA", "test": "HTS Image-Based Screen for Agonists of the DOR Receptor. [Related pubchem assays (depositor defined):AID1777, AID1786, AID2133]", "type": "functional"}, "Beta-galactosidase [22]": {"target": "T1, Beta-galactosidase", "type": "functional"}, "[23]": {"test": "cytotoxicity in HEK-293T cells, dose response, cytotoxicity control for TCR NF-kB inhibitor project, luminescence, T-cell screen hits (AID 489026);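 note: cells exposed to compound about 14 hours before the viability readout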", "type": "functional, cell-based"}, "[24]": {"target": "G2/mitotic-specific cyclin-B1 (Homo sapiens, UniProt P14635)", "test": "Counterscreen assay for inhibitors of Wee1 degradation: dose response cell-based assay to identify inhibitors of cyclin B degradation. [Related pubchem assays: 1410, 1321 ]", "type": "functional"}},
  "note": "The source made the active and inactive calls.",
  "data": [
    {"smiles": "Cc1ccc(C(=O)c2c(C)oc3c2C(=O)C(=O)c2ccccc2-3)cc1", "values": [
      {"measurement": "IC50", "setting": "[1]", "value": "6.83 µM (active)"}
    ]},
    {"smiles": "CN(C)c1ncc(C2=C(Cl)C(=O)C(N3CCCC3)=C(Cl)C2=O)s1", "values": [
      {"measurement": "IC50", "setting": "[2]", "value": "26.4 µM (active)"},
      {"measurement": "IC50", "setting": "Beta-galactosidase [3]", "value": "> 66.6 µM (inactive)"},
      {"measurement": "IC50", "setting": "Estrogen receptor beta", "value": "20.6 µM (not active)"}
    ]},
    {"smiles": "O=C1C(Cl)=C(NCc2cccnc2)C(=O)c2ccccc21", "values": [
      {"measurement": "EC50", "setting": "Hexokinase-1", "value": "30.8 µM (inactive)"}
    ]},
    {"smiles": "O=C1C(O)=C/C(=N\\c2ccccc2O)c2ccccc21", "values": [
      {"measurement": "IC50", "setting": "HEK293", "value": "> 20 µM (inactive)"}
    ]},
    {"smiles": "O=C1NC(=S)SC1=C1C(=O)Nc2ccc(Br)cc21", "values": [
      {"measurement": "Ki", "setting": "[4]", "value": "2.51 µM (active)"},
      {"measurement": "Ki", "setting": "LIM domain kinase 1", "value": "3.98 µM (active)"},
      {"measurement": "Ki", "setting": "[5]", "value": "> 5.01 µM (inactive)"},
      {"measurement": "Ki", "setting": "[6]", "value": "1 µM (active)"},
      {"measurement": "Ki", "setting": "[7]", "value": "> 2 µM (inactive)"},
      {"measurement": "Ki", "setting": "[8]", "value": "> 1.58 µM (inactive)"},
      {"measurement": "Ki", "setting": "[9]", "value": "> 2 µM (inactive)"},
      {"measurement": "Ki", "setting": "[10]", "value": "> 2 µM (inactive)"},
      {"measurement": "Ki", "setting": "[11]", "value": "> 5.01 µM (inactive)"},
      {"measurement": "Ki", "setting": "[12]", "value": "0.631 µM (active)"},
      {"measurement": "Ki", "setting": "[13]", "value": "0.794 µM (active)"},
      {"measurement": "Ki", "setting": "[14]", "value": "0.794 µM (active)"},
      {"measurement": "Ki", "setting": "[15]", "value": "> 10 µM (inactive)"},
      {"measurement": "Ki", "setting": "Insulin receptor", "value": "> 5.01 µM (inactive)"},
      {"measurement": "Ki", "setting": "[16]", "value": "> 1.58 µM (inactive)"},
      {"measurement": "Ki", "setting": "[17]", "value": "> 6.31 µM (inactive)"},
      {"measurement": "Ki", "setting": "[18]", "value": "> 2.51 µM (inactive)"}
    ]},
    {"smiles": "Cc1cnc(NC(=O)c2sc3ccccc3c2Cl)s1", "values": [
      {"measurement": "EC50", "setting": "[19]", "value": "> 67.5 µM (inactive)"}
    ]},
    {"smiles": "Cc1ccc(Nc2cc(C)nn2-c2nc(C)cc(O)n2)cc1", "values": [
      {"measurement": "IC50", "setting": "[20]", "value": "0.764 µM (active)"},
      {"measurement": "EC50", "setting": "[21]", "value": "> 32 µM (inactive)"},
      {"measurement": "EC50", "setting": "Beta-galactosidase [22]", "value": "> 31.5 µM (inactive)"},
      {"measurement": "IC50", "setting": "[23]", "value": "> 80 µM (inactive)"},
      {"measurement": "EC50", "setting": "[24]", "value": "> 49.7 µM (not active)"}
    ]}
  ]
}
